Results on two molecules are retold here after article PMC8348686, “The Pharmacological Profile of Second Generation Pyrovalerone Cathinones and Related Cathinone Derivative” (International Journal of Molecular Sciences, 2021).

A value given as a limit tells only on which side of the number the result lay.

Test [1] addresses T1, h5-HT2B receptor (Homo sapiens, UniProt P41595).
T1 construct: expressed in transfected cells; host or cells: HEK293
Details: method as in Rickli et al. (2015). Particulars: read-out: h5-HT2B Activation Potency EC50 ± SD; ref Rickli et al. (2015); cited from earlier work.

The target of test [2] is h5-HT2A receptor (Homo sapiens, UniProt P28223). More on the design: expressed in transfected cells; host or cells: HEK293 cell preparations. Particulars: read-out: h5-HT2A Receptor Binding Ki ± SD; [3H]-Ketanserin; ref Rickli et al. (2015); cited from earlier work.
Chain of h5-HT2A receptor (P28223 whole entry): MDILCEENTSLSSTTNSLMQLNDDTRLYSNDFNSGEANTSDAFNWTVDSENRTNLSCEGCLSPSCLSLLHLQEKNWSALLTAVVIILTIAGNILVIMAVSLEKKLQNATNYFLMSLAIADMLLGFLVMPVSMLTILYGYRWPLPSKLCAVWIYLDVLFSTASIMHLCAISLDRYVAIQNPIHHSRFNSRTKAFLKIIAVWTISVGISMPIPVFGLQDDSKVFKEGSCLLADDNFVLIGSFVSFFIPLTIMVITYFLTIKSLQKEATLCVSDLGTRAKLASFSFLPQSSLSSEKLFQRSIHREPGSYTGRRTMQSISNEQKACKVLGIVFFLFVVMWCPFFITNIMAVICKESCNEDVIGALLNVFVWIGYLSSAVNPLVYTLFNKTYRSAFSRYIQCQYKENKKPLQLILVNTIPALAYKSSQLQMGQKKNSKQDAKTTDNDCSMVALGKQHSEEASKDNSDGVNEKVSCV
Test [3] concerns the target hNET (Homo sapiens, UniProt P23975). In words: Transporter binding, N-methyl-[3H]-nisoxetine. An excerpt:
Table 3 Monoamine transporter and receptor binding affinities of pyrovalerone and NEH. | column: hNET / Receptor Binding / Ki ± SD [μM] / N-Methyl-[^3H]-nisoxetine

Test [4] addresses hDAT (Homo sapiens, UniProt Q01959). The experiment in a line: Transporter binding, [3H]-WIN-35,428.
The target of test [5] is hSERT (Homo sapiens, UniProt P31645). In words: Transporter binding, [3H]-citalopram.
Chain of hSERT (P31645 whole entry): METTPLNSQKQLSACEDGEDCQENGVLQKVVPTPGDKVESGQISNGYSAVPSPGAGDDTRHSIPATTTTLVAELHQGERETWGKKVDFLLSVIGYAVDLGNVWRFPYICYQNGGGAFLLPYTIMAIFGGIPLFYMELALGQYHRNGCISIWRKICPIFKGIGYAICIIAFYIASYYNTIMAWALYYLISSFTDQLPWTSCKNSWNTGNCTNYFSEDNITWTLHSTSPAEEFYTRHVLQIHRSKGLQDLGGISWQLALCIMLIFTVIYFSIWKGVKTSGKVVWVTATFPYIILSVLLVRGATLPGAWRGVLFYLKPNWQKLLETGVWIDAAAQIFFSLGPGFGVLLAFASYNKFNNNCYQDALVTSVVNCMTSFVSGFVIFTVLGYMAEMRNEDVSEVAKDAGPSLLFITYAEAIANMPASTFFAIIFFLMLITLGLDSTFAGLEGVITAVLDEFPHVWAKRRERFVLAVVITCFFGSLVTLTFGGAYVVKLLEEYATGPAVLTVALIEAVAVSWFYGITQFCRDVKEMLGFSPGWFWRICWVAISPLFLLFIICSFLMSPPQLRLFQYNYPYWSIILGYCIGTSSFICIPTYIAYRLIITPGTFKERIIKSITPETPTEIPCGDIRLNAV
The target in test [6] is dopaminergic D2 receptor (Homo sapiens, UniProt P14416). The experiment in a line: Receptor binding, [3H]-spiperone. From the text: Table 3 Monoamine transporter and receptor binding affinities of pyrovalerone and NEH. | column: D2 / Receptor Binding / Ki ± SD [μM] / [^3H]-Spiperone
Chain of dopaminergic D2 receptor (P14416 whole entry): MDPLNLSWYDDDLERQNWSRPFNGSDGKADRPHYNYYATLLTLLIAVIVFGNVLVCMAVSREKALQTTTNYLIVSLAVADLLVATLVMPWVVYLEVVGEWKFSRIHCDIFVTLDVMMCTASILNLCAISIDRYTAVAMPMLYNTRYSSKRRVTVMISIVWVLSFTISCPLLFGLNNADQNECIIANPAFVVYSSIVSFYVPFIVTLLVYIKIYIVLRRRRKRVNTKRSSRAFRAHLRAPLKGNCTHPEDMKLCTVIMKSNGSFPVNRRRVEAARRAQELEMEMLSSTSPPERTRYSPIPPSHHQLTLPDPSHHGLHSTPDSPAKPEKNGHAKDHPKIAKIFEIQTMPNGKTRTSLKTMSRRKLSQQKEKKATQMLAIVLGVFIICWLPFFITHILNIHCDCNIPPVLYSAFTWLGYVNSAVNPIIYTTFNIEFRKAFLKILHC
Test [7] addresses T2, adrenergic α2A receptor (Homo sapiens, UniProt P08913).
T2 sequence (P08913 1-465): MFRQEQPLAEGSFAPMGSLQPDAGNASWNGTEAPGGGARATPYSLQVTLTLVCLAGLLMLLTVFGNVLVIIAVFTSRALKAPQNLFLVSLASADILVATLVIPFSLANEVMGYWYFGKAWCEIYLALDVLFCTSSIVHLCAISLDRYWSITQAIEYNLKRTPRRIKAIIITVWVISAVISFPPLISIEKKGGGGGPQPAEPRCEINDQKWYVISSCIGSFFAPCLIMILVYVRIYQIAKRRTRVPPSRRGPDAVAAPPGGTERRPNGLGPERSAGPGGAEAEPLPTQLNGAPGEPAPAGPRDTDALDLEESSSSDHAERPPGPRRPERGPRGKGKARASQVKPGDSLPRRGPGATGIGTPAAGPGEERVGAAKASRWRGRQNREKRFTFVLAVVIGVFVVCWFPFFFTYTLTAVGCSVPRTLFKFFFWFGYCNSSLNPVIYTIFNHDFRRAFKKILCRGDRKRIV
In words: Receptor binding, [3H]-rauwolscine. From the text:
Table 3 Monoamine transporter and receptor binding affinities of pyrovalerone and NEH. | column: α2A / Receptor Binding / Ki ± SD [μM] / [^3H]-Rauwolscine

T1 sequence (P41595 whole entry): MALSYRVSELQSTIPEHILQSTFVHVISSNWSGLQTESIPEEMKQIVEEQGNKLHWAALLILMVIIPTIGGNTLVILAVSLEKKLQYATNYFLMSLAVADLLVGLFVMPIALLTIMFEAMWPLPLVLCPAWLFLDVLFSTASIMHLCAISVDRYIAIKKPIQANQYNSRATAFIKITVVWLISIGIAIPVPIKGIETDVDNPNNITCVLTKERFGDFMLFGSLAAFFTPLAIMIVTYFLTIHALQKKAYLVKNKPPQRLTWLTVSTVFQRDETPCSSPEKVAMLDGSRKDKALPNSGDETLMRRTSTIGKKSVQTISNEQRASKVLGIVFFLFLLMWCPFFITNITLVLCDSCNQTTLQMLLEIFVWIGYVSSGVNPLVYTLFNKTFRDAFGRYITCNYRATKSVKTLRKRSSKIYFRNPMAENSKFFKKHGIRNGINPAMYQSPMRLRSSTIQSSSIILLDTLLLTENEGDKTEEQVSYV
Chain of hDAT (Q01959 whole entry): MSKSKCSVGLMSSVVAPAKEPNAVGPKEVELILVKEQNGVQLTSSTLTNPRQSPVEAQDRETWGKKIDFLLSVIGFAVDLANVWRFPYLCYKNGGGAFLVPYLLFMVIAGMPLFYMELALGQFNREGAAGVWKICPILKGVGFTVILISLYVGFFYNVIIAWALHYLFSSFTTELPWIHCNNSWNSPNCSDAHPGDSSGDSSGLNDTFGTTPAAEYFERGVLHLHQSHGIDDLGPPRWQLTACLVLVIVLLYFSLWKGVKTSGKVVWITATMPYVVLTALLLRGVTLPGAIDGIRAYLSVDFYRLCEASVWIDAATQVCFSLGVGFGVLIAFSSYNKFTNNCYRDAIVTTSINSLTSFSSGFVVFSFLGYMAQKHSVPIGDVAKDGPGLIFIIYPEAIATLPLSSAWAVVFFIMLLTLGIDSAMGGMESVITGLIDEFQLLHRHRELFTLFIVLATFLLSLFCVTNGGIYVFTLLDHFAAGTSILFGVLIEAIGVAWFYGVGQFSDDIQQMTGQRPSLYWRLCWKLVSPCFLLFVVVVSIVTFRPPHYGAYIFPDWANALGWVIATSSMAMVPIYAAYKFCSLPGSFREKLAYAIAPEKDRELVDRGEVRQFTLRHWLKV
Chain of hNET (P23975 whole entry): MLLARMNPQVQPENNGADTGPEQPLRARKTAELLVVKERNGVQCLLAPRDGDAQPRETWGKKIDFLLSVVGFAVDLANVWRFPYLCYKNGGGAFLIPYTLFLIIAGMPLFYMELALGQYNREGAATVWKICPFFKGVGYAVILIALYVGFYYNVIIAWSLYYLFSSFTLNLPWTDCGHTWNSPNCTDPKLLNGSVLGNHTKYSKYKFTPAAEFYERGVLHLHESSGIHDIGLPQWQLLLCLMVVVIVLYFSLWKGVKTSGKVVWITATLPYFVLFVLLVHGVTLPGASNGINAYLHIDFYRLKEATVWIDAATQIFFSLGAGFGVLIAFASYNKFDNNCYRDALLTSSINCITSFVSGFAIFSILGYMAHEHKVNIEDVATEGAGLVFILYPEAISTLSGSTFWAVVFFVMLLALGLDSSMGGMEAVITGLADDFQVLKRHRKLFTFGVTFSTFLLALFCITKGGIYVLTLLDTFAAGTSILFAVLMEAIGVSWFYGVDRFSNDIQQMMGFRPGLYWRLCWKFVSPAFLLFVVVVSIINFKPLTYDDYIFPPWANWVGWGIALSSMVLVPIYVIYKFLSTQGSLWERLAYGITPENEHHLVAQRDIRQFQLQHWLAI

By EC50 is commonly meant the concentration at which the effect is half-maximal. In general, Ki refers to a dissociation constant, usually derived from enzyme kinetics or from competition with a known ligand. In the case of `CNC(C)Cc1ccc2c(c1)OCO2` (stereo not shown) [MDMA, 3,4-methylenedioxymethamphetamine, reference compound], the 50% effective concentration (EC50) in test [1] is more than 20 µM. In addition, in test [2], the inhibition constant Ki was 6.3 ± 2.4 µM.

For the molecule `Cc1ccc(C(=O)C(C)N2CCCC2)cc1` (stereo not drawn) [4-MePPP, 4-methyl-α-pyrrolidinopropiophenone], the Ki in test [3] was 2.5 ± 0.7 µM; in test [4] it was 0.3 ± 0.02 µM; in test [5], more than 7.4 µM; in test [6] it was more than 13 µM; in test [7], more than 4.7 µM.
